Paper PMC8812549 (Journal of medicinal chemistry, 2021)

Experiment: not given
Conditions: mice, 1 mg/kg, di-HCl salt; liver

Cmax liver [µM]	SMILES
4.13	Cc1ccc([C@H]2C[C@H](N(Cc3ccc(Br)c(Cl)c3)C3CCNCC3)C2)cc1 [77b]

Same assay, conditions: mice, 10 mg/kg IP, 24 hours; posture, body temperature, respiratory rate

SMILES	unusual behavior or acute toxicity
Clc1cc(CN(C2CCNCC2)C2CC(c3ccc(Br)cc3)C2)ccc1Br (stereo not drawn) [compound 58, N-(4-Bromo-3-chlorobenzyl)-N-(3-(4-bromophenyl)cyclobutyl)piperidin-4-amine]	No unusual behavior or acute toxicity

Same assay, conditions: mice, 10 mg/kg IP, oxalate salt; liver

SMILES	Cmax liver [µM]
Clc1cc(CN(C2CCNCC2)C2CC(c3ccc(Br)cc3)C2)ccc1Br (stereo not drawn) [compound 58, N-(4-Bromo-3-chlorobenzyl)-N-(3-(4-bromophenyl)cyclobutyl)piperidin-4-amine]	112

Experiment: Parallel artificial membrane permeability assay
Type: in vitro ADME
Conditions: passive permeability, pH 7.4

SMILES	PAMPA
Clc1cc(CN(C2CCNCC2)C2CC(c3ccc(Br)cc3)C2)ccc1Br (stereo not drawn) [compound 58, N-(4-Bromo-3-chlorobenzyl)-N-(3-(4-bromophenyl)cyclobutyl)piperidin-4-amine]	32 1e^−6 cm/s
Cc1cccc(C2CC(N(Cc3ccc(Br)c(Cl)c3)C3CCNCC3)C2)c1 (stereo not drawn) [compound 60]	265 1e^−6 cm/s
Clc1cc(CN(C2CCNCC2)C2CC(c3cccc(Br)c3)C2)ccc1Br (stereo not drawn) [compound 62]	14 1e^−6 cm/s
Cc1ccc(C2CC(N(Cc3ccc(Br)c(Cl)c3)C3CCOCC3)C2)cc1 (stereo not drawn) [compound 66]	<6.4 1e^−6 cm/s
CC(=O)N1CCC(N(Cc2ccc(Br)c(Cl)c2)C2CC(c3ccc(C)cc3)C2)CC1 (stereo not drawn) [compound 67]	1909 1e^−6 cm/s
Cc1ccc(C2CC(N(Cc3ccc(Br)c(Cl)c3)C3CCN(C)CC3)C2)cc1 (stereo not drawn) [compound 68]	274.27 1e^−6 cm/s
Cc1ccc(C2CC(N(Cc3ccc(Br)c(Cl)c3)C3CCN(C(C)C)CC3)C2)cc1 (stereo not drawn) [compound 69]	<23.1 1e^−6 cm/s
Cc1ccc(C2CC(N(Cc3ccc(Br)c(Cl)c3)C3CCC(N)CC3)C2)cc1 (stereo not drawn) [compound 70]	818.04 1e^−6 cm/s
Cc1ccc(C2CC(N(Cc3ccc(Br)c(Cl)c3)C3CC4CNC3C4)C2)cc1 (stereo not drawn) [compound 74]	122.99 1e^−6 cm/s

Continued, values first:

PAMPA	SMILES
806 1e^−6 cm/s	Cc1ccc(C2CC(N(Cc3ccc(Br)c(Cl)c3)C3CCNCC3)C2)cc1 (stereo not drawn) [compound 56, N-(4-Bromo-3-chlorobenzyl)-N-(3-(p-tolyl)cyclobutyl)piperidin-4-amine]
398 1e^−6 cm/s	Fc1ccc(C2CC(N(Cc3ccc(Br)c(Cl)c3)C3CCNCC3)C2)cc1 (stereo not drawn) [compound 59]
665.84 1e^−6 cm/s	Cc1ccc(C2CC(N(Cc3ccc(Br)c(Cl)c3)C3CCCNCC3)C2)cc1 (stereo not drawn) [compound 72]
